Data published in patent publication US20240423973A1, “COMPOUNDS, PHARMACEUTICAL COMPOSITIONS, AND METHODS FOR THE TREATMENT, PREVENTION, OR MANAGEMENT OF HYPERPROLIFERATIVE DISORDERS” (VINCERX PHARMA GMBH, priority 2021, published 2024).
Where a name gives a salt, the structure may show the parent alone. *1 amine or outer side, *2 acyl side, *3 side chain or, on linkers, in order; H or OH if unused. Where a SMILES comes first, the peptide text is derived from it. [ ]: non-standard residue; d: D form. The star is where a group is joined. X1 = CCCNC(=O)Nc1cccc(S(=O)(=O)Nc2cccc([C@@H](CC(=O)O)NC(=O)Nc3ccc(N*)cc3)c2)c1; Camptothecin(7-Et) = CCc1c2c(nc3ccccc13)-c1cc3c(c(=O)n1C2)COC(=O)[C@@]3(CC)O*; CO = O=C([*:1])[*:2]; Sar = CNCC(=O)O

Experiments:
Assay in all cases: Cytotoxicity assay (Version 2), automated, AC50
[1] = system: 786-O; type: cell-based, human; conditions: 786-O cells, Version 2, activity concentration at -50%, 4 parameter Hill-fit
Method: (§1) Cultivation of cells was performed according to standard procedures with the media recommended by the provider. The cells, in a total volume of 100 μL, were seeded in a 96-well plate with a white bottom (#3610). After a 24 h incubation period at 37° C. and 5% CO2, the medium was exchanged by adding 90 μL fresh medium. The treatment started by adding the test compound in 10 μL of culture medium to the cells in triplicates. Concentrations ranging from 10^−5 M to 10^−13 M were chosen. Two identically treated sets of samples were prepared. One set was treated with the test compound alone, whereas to the second set the compound and 10 nM elastase was added followed by a 72 h incubation period at 37° C. and 5% CO2. The proliferation was detected using the MTT assay (ATCC). At the end of the incubation period the MTT reagent was added to all samples for 4h. Lysis of the cells followed by addition of the detergent was done overnight. The formed dye was detected at 570 nm. The proliferation of untreated but otherwise identically handled cells was define as the […].
(§2) The Cytotoxicity assay (Version 2) was performed as above described. Some changes were applied as the assays were performed in an automated fashion and the IC50 values determination was changed. Here the change in metabolic activity of the cells, in percent, was calculated by normalization of the measured values to the absorbance values of medium containing wells without cells (=−100% ) and the absorbance of the DMSO-treated cells (=0% ). AC50 values (activity concentration at -50% o) were determined by means of a 4 parameter Hill-fit using GeneData Screener software.

[2] = system: HT29; type: cell-based, human; conditions: HT29 cells, Version 2, activity concentration at -50%, 4 parameter Hill-fit
Method: as §1, §2

[3] = system: NCI H292; type: cell-based, human; conditions: NCI H292 cells, Version 2, activity concentration at -50%, 4 parameter Hill-fit
Method: as §1, §2

[4] = system: SUM149; type: cell-based; conditions: SUM149 cells, Version 2, activity concentration at -50%, 4 parameter Hill-fit
Method: as §1, §2

Row | Structure (SMILES) | AC50 ([1]; no elastase) [nM] | AC50 ([1]; with elastase) [nM] | AC50 ([2]; no elastase) [nM] | AC50 ([2]; with elastase) [nM] | AC50 ([3]; no elastase) [nM] | AC50 ([3]; with elastase) [nM] | AC50 ([4]; no elastase) [nM] | AC50 ([4]; with elastase) [nM]
1 | CCCNC(=O)Nc1cccc(S(=O)(=O)Nc2cccc([C@@H](CC(=O)O)NC(=O)Nc3ccc(NC(=O)NCCOCCOCCOCCC(=O)NCCNC(=O)CC[C@H](NC(=O)CCCC(=O)NCCN(C)CCN(C)CCN(C)CC(=O)N[C@@H](CC(N)=O)C(=O)N4CCC[C@H]4C(=O)N[C@H](C(=O)O[C@]4(CC)C(=O)OCc5c4cc4n(c5=O)Cc5c-4nc4ccccc4c5CC)C(C)C)C(=O)NCCNC(=O)CCOCCOCCOCCNC(=O)Nc4ccc(NC(=O)N[C@H](CC(=O)O)c5cccc(NS(=O)(=O)c6cccc(NC(=O)NCCC)c6)c5)cc4)cc3)c2)c1 [Compound A9] | 110 to 1000 | ≤ 10 | > 1000 | 11 to 100 | 110 to 1000 | ≤ 10 | 110 to 1000 | ≤ 10
2 | CCCNC(=O)Cc1cccc(S(=O)(=O)Nc2cccc([C@@H](CC(=O)O)NC(=O)Nc3ccc(NC(=O)NCCOCCOCCOCCC(=O)NCCNC(=O)[C@H](CCC(=O)NCCNC(=O)CCOCCOCCOCCNC(=O)Nc4ccc(NC(=O)N[C@H](CC(=O)O)c5cccc(NS(=O)(=O)c6cccc(NC(=O)NCCC)c6)c5)cc4)NC(=O)CCCC(=O)NCCN(C)CCN(C)CCN(C)CC(=O)NCC(=O)N4CCC[C@H]4C(=O)N[C@H](C(=O)O[C@]4(CC)C(=O)OCc5c4cc4n(c5=O)Cc5c-4nc4ccccc4c5CC)C(C)C)cc3)c2)c1 [Compound A11] | 11 to 100 | ≤ 10 | 110 to 1000 | 11 to 100 | ≤ 10 | ≤ 10 | ≤ 10 | ≤ 10
3 | CCCNC(=O)Nc1cccc(S(=O)(=O)Nc2cccc([C@H](CC(=O)O)NC(=O)Nc3ccc(NC(=O)NCCOCCOCCOCCC(=O)NCCNC(=O)CC[C@H](NC(=O)CCCC(=O)NCCN(C)CCN(C)CCN(C)CC(=O)NCC(=O)N4CCC[C@H]4C(=O)N[C@H](C(=O)O[C@]4(CC)C(=O)OCc5c4cc4n(c5=O)Cc5c-4nc4ccccc4c5CC)C(C)C)C(=O)NCCNC(=O)CCOCCOCCOCCNC(=O)Nc4ccc(NC(=O)N[C@@H](CC(=O)O)c5cccc(NS(=O)(=O)c6cccc(NC(=O)NCCC)c6)c5)cc4)cc3)c2)c1 [Compound A12] | ≤ 10 | ≤ 10 | 110 to 1000 | 11 to 100 | 11 to 100 | ≤ 10 | ≤ 10 | ≤ 10
4 | CCCNC(=O)Nc1cccc(S(=O)(=O)Nc2cccc([C@@H](CC(=O)O)NC(=O)Nc3ccc(NC(=O)N(C)CC(=O)N(C)CC(=O)N(C)CC(=O)N(C)CC(=O)N[C@@H](CC(=O)O)C(=O)N4CCC[C@H]4C(=O)N[C@H](C(=O)O[C@]4(CC)C(=O)OCc5c4cc4n(c5=O)Cc5c-4nc4ccccc4c5CC)C(C)C)cc3)c2)c1 [Compound B6] ({X1-CO}-[Sar][Sar][Sar][Sar]DPV-{Camptothecin(7-Et)}) | 110 to 1000 | ≤ 10 | > 1000 | 11 to 100 | 110 to 1000 | ≤ 10 | 110 to 1000 | ≤ 10
5 | CCCNC(=O)Nc1cccc(S(=O)(=O)Nc2cccc([C@@H](CC(=O)O)NC(=O)Nc3ccc(NC(=O)NCCOCCOCCOCCC(=O)N[C@@H](CC(=O)OCCC[N+](C)(C)C)C(=O)N4CCC[C@H]4C(=O)N[C@H](C(=O)O[C@]4(CC)C(=O)OCc5c4cc4n(c5=O)Cc5c-4nc4ccccc4c5CC)C(C)C)cc3)c2)c1 [Compound C5, trifluoroacetate] | 110 to 1000 | ≤ 10 | > 1000 | 11 to 100 | 110 to 1000 | ≤ 10 | 110 to 1000 | ≤ 10
6 | CCCNC(=O)Nc1cccc(S(=O)(=O)Nc2cccc([C@@H](CC(=O)O)NC(=O)Nc3ccc(NC(=O)NCCOCCOCCOCCC(=O)N[C@@H](CC(=O)O)C(=O)N4CCC[C@H]4C(=O)N[C@@H](C)C(=O)O[C@]4(CC)C(=O)OCc5c4cc4n(c5=O)Cc5c-4nc4ccccc4c5CC)cc3)c2)c1 [Compound C10, disodium (4S)-4,11-diethyl-3,14-dioxo-3,4,12,14-tetrahydro-1H-pyrano[3′,4′:6,7]indolizino[1,2-b]quinolin-4-yl 1-[(2S)-2-(carboxylatomethyl)-17-{4-[({(1R)-2-carboxylato-1-[3-({3-[(propylcarbamoyl)amino]benzene-1-sulfonyl}amino)phenyl]ethyl}carbamoyl)amino]anilino}-4,17-dioxo-7,10,13-trioxa-3,16-diazaheptadecanan-1-oyl]-L-prolyl-L-alaninate] | 11 to 100 | ≤ 10 | 110 to 1000 | 11 to 100 | 11 to 100 | ≤ 10 | 11 to 100 | ≤ 10
7 | CCCNC(=O)Nc1cccc(S(=O)(=O)Nc2cccc([C@@H](CC(=O)O)NC(=O)Nc3ccc(NC(=O)N(C)CC(=O)N(C)CC(=O)N(C)CC(=O)N(C)CC(=O)N(C)CC(=O)N(C)CC(=O)N(C)CC(=O)N(C)CC(=O)N[C@@H](CC(=O)O)C(=O)N4CCC[C@H]4C(=O)N[C@H](C(=O)O[C@]4(CC)C(=O)OCc5c4cc4n(c5=O)Cc5c-4nc4ccccc4c5CC)C(C)C)cc3)c2)c1 [Compound D3] ({X1-CO}-[Sar][Sar][Sar][Sar][Sar][Sar][Sar][Sar]DPV-{Camptothecin(7-Et)}) | 110 to 1000 | ≤ 10 | 110 to 1000 | 11 to 100 | 110 to 1000 | ≤ 10 | 110 to 1000 | ≤ 10
8 | CCCNC(=O)Nc1cccc(S(=O)(=O)Nc2cccc([C@@H](CC(=O)O)NC(=O)Nc3ccc(NC(=O)NCCOCCOCCOCCC(=O)N[C@@H](CCCCNC(=O)CCCC(=O)N(C)CC(=O)N(C)CC(=O)N(C)CC(=O)N(C)CC(=O)N(C)CC(=O)N(C)CC(=O)N(C)CC(=O)N(C)CC(=O)O)C(=O)NCCOCCOCCOCCC(=O)N[C@@H](CC(=O)O)C(=O)N4CCC[C@H]4C(=O)N[C@H](C(=O)O[C@]4(CC)C(=O)OCc5c4cc4n(c5=O)Cc5c-4nc4ccccc4c5CC)C(C)C)cc3)c2)c1 [Compound E4] | 110 to 1000 | ≤ 10 | 110 to 1000 | 11 to 100 | 110 to 1000 | ≤ 10 | 110 to 1000 | ≤ 10
